Columns and labels:
[1] = mn = molality of the nth substance listed, in mol/kg; details: 101 kPa, Liquid; for speed of sound: Sing-around technique in a fixed-path interferometer; for mass density: Vibrating tube method
[2] = refractive index (Na D-line) (dimensionless); mn = molality of the nth substance listed, in mol/kg; details: 101 kPa, Liquid, Standard Abbe refractometry

O=P([O-])([O-])[O-].[Na+].[Na+].[Na+] [trisodium phosphate] + O
Details	mass density, 298.15 K [kg/m3]	mass density, 303.15 K [kg/m3]	mass density, 308.15 K [kg/m3]	refractive index, 298.15 K	refractive index, 303.15 K	refractive index, 308.15 K	speed of sound, 298.15 K [m/s]	speed of sound, 303.15 K [m/s]	speed of sound, 308.15 K [m/s]
[1], m1 = 0.1	1015.18	1013.87	1012.26	–	–	–	1519.7	1531.5	1541.8
[1], m1 = 0.3	1052.41	1051.09	1049.48	–	–	–	1563.1	1573.9	1583.5
[1], m1 = 0.5	1091.06	1090.82	1089.21	–	–	–	1608.9	1619.9	1628.3
[1], m1 = 0.7	1130.08	1129.51	1131.08	–	–	–	1658.1	1667.3	1677.7
[1], m1 = 0.9	1173.67	1169.99	1167.45	–	–	–	1716.9	1722.6	1727.6
[2], m1 = 0.1	–	–	–	1.3365	1.3358	1.3353	–	–	–
[2], m1 = 0.3	–	–	–	1.3439	1.3431	1.3425	–	–	–
[2], m1 = 0.5	–	–	–	1.3515	1.3506	1.35	–	–	–
[2], m1 = 0.7	–	–	–	1.3588	1.3581	1.3574	–	–	–
[2], m1 = 0.9	–	–	–	1.3664	1.3671	1.3653	–	–	–

— the NIST ThermoML archive (doi:10.1016/j.jct.2013.01.012)
